Test [1] concerns Pyricularia oryzae (rice blast). The test is described as follows: whole plant or invertebrate. The test is classed as in vivo. To be noted: Pyricularia oryzae, foliar, read-out: PYRIOR disease control, host rice; foliar spray; 400 ppm (+++: 100 ppm).
Test [2] has as its system cotton aphid (Aphis gossypii). The experiment in a line: whole plant or invertebrate. To be noted: 72 h; for mortality at 50 ppm: read-out: CA activity (percent based on aphids present in plants sprayed with solvent alone), 50 ppm, squash plants, three days after treatment; for mortality at 400 ppm: read-out: CA activity (percent based on aphids present in plants sprayed with solvent alone), 400 ppm, squash plants, three days after treatment.

The subject of test [3] is Erysiphe graminis tritici (powdery mildew). The experiment in a line: Foliar spray fungicide test, Erysiphe graminis tritici (powdery mildew) on wheat. The note with it: Blumeria graminis, in Triticum aestivum, foliar, read-out: ERYSGT disease control, host wheat, 400 ppm (+++: 100 ppm).
Protocol: (§3) The test compounds were formulated for application by dissolving 50 mg of the compound into 1.25 ml of solvent. The solvent was prepared by mixing 50 ml of "Tween 20" (polyoxyethylene (20) sorbitan monolaurate emulsifier) with 475 ml of acetone and 475 ml of ethanol. The solvent/compound solution was diluted to 125 ml with deionized water. The resulting formulation contains 400 ppm test chemical. Lower concentrations were obtained by serial dilution with the solvent-surfactant mixture.
The formulated test compounds were applied by foliar spray. The following plant pathogens and their corresponding plants were employed.
(§4) The formulated technical compounds were sprayed on all foliar surfaces of the host plants to past run-off. Single pots of each host plant were placed on raised, revolving pedestals in a fume hood. Test solutions were sprayed on all foliar surfaces. All treatments were allowed to dry and the plants were inoculated with the appropriate pathogens within 24 hours.
(§5) The effectiveness of test compounds in controlling disease was rated using the following scale.
The test system of test [4] is beet armyworm (Spodoptera exiqua). The test is described as follows: Activity against beet armyworm. To be noted: Spodoptera, 144 h, 6 days, read-out: BAW activity (rated on live and dead larvae and size of live larvae). In kind it is in vivo. The procedure: (§1) The compounds identified in Table I were tested for miticidal and insecticidal activity against eight species. The following abbreviations are used in the Table III:
BAW refers to beet armyworm
(§2) In conducting evaluations of insecticidal activity, each test compound was formulated as a 400 ppm solution, and this solution was then diluted with water to give lesser concentrations. The 400 ppm solution was prepared by combining 19.2 mL of 0.05% solution of Tween 20 (polyoxyethylene (20) sorbitan monolaurate) in water with a solution of 8 mg of the compound in 0.8 mL of acetone/EtOH (9/1).
Activity against beet armyworm (Spodoptera exiqua) was evaluated as follows. The test is run using concentrations of 400 ppm and 50 ppm. A general purpose lepidoptera artificial diet was diluted to half strength with a 5% non nutritive agar. 8 mL of this diet material was dispensed into one ounce diet cups. One hour prior to treatment, 35 to 40 eggs were dispensed onto the diet surface. The cups were then sprayed with formulated material through a flat-fan nozzle. Treated cups were air dried prior to sealing with plastic caps. The cups were held for 6 days at room temperature. Activity was then rated based on the total number of live and dead larvae, and on the size of live larvae.

For test [5], the system named is Plasmopara viticola (downy mildew). The experiment in a line: Foliar spray fungicide test, Plasmopara viticola (downy mildew) on grape. To be noted: Plasmopara viticola, foliar, read-out: PLASVI disease control.
The subject of test [6] is tobacco budworm (Heliothis virescens). The test is described as follows: Activity against tobacco budworm. The test is classed as in vivo. The note with it: Heliothis virescens, 144 h, 6 days, read-out: TBW activity (rated on live and dead larvae and size of live larvae). The procedure:
as §1
TBW refers to tobacco budworm
as §2
Activity against tobacco budworm (Heliothis virescens) was evaluated as follows. A general purpose lepidoptera artificial diet was diluted to half strength with a 5% non nutritive agar. 8 mL of this diet material was dispensed into each one ounce diet cup. One hour prior to treatment 18 to 20 eggs were dispensed onto the diet surface. The cups were then sprayed with formulated material through a flat-fan nozzle. The test was run using concentrations of 400 ppm and 50 ppm. Treated cups were air dried prior to sealing with plastic caps. The cups were held for 6 days at room temperature. Activity was then rated based on the total number of live and dead larvae, and on the size of live larvae.

For test [7], the system named is Puccinia recondita tritici (leaf rust). The experiment in a line: Foliar spray fungicide test, Puccinia recondita tritici (leaf rust) on wheat. The note with it: Puccinia recondita, in Triticum aestivum, foliar, read-out: PUCCRT disease control, host wheat, 400 ppm (+++: 100 ppm).
Test [8] deals with two spotted spider mite (Tetranychus urticae). The experiment in a line: whole plant or invertebrate. The note with it: 72 h; for mortality at 400 ppm: read-out: TSSM activity (percent based on mites present in plants sprayed with solvent alone), 400 ppm, squash plants, three days after treatment; for mortality at 50 ppm: read-out: TSSM activity (percent based on mites present in plants sprayed with solvent alone), 50 ppm, squash plants, three days after treatment.

The test system of test [9] is Southern corn rootworm (Diabrotica undecimpuctata howardi Barber). The test is described as follows: whole plant or invertebrate. The note with it: 3-4 days, read-out: SCRW mortality. The test is classed as in vivo.
Test [10] has as its system Leptosphaeria nodorum (glume blotch). The test is described as follows: Foliar spray fungicide test, Leptosphaeria nodorum (glume blotch) on wheat. To be noted: Parastagonospora nodorum, in Triticum aestivum, foliar, read-out: LETPNO disease control, host wheat, 400 ppm (+++: 100 ppm).
Protocol: as §3
The formulated test compounds were applied by foliar spray.
as §4, §5
Test [11] relates to aster leafhopper (Macrosteles fascifrons). The experiment in a line: whole plant or invertebrate. The test is classed as in vivo. The note with it: Macrosteles fascifrons, 24 h, read-out: ALH percent mortality. As to the method:
as §1
ALH refers to aster leafhopper
as §2
Activity against aster leafhopper (Macrosteles fascifrons) was tested as follows. The test was run using concentrations of 400 ppm and 50 ppm. One ounce plastic cups containing a cotton wick was sprayed with 0.4 mL of formulated material using a flat-fan nozzle. The excess moisture was allowed to evaporate. Then five to ten carbon dioxide anesthetized adult leafhoppers were added to each cup. The cups were capped and held at room temperature for 24 hours. Percent mortality was then determined.

The subject of test [12] is Southern corn rootworm (Diabrotica undecimpuctata howardi Barber). The experiment in a line: whole plant or invertebrate. The test is classed as in vivo. To be noted: 400 ppm, soil concentration of 24 ppm, 3-4 days, read-out: SCRW mortality. As to the method:
as §1
SCRW refers to southern corn rootworm
as §2
Activity on Southern corn rootworm (Diabrotica undecimpuctata howardi Barber) was evaluated by adding one mL of test solution containing a predetermined concentration of test compound to a cup containing a kernel of corn in 16 g of sterile soil. This produces a soil concentration of 24 ppm. After 1.5 to 2 hours of drying, five 4th instar corn rootworm larvae were added to the individual cups. Mortality was measured at 3-4 days by emptying the cup onto a pan and inspecting the soil for live rootworms.

Test [13] relates to German cockroach (Blattella germanicus). The experiment in a line: whole plant or invertebrate. In kind it is in vivo. To be noted: 240 h, ten days, read-out: GECR activity (rated on live and dead insects). The procedure: as §1
GECR refers to German cockroach
as §2
Activity against German cockroach (Blattella germanicus) was evaluated as follows. 8 mL of alfalfa based green insect diet material was dispensed into a one ounce diet cup. The cups were then sprayed with formulated material through a flat-fan nozzle. The test was run using concentrations of 400 ppm and 50 ppm. Treated cups were air dried for 24 hours and infested with five late third or early fourth instar German cockroaches. The cups were capped and held for ten days in an environmental growth chamber at a temperature of […]. Activity was then rated based on the total number of live and dead insects.

With `Fc1cccc2c(OCCc3ccc(Oc4ccc(C(F)(F)F)cn4)cc3)ncnc12` [Compound 27, 8-Fluoro-4-(2-(4-(5-(trifluoromethyl)-2-pyridinyloxy)phenyl)ethoxy)quinazoline], the pest or weed control at 400 µg/mL in test [1] was in the range of 90 to 100%; in test [3], 90 to 100%; in test [5], 90 to 100%; in test [7], 90 to 100%; in test [10], 0 to 19%. The results for the mortality at 50 ppm in test [2], in test [9] and in test [11] were 90%, 100% and 100%, respectively. In addition, the mortality at 400 ppm in [2], in test [8] and in test [11] was 100% in each case. In [4], the pest or weed control at 50 ppm amounted to 100%. The pest or weed control at 400 ppm in test [4] and in [6] was 100% in each case. Besides, the mortality at 24 ppm in test [12] was found to be 100%.

`Fc1cccc2c(NCCc3ccc(Oc4ncc(C(F)(F)F)cc4Cl)cc3)ncnc12` [Compound 1]: the pest or weed control at 400 µg/mL in [1], in test [3], in [5], in test [7] and in test [10] was 90 to 100% throughout. Also, the mortality at 50 ppm in test [2] is 0%; in [8], 0%; in test [13], 0%; in test [11], 100%. Also, the mortality at 400 ppm came out at 0% in test [2], 0% in test [8], 20% in test [13] and 100% in test [11]. Also, the pest or weed control at 50 ppm in test [4] and in test [6] was 100% throughout. Besides, the pest or weed control at 400 ppm came out at 100% in test [4] and 0% in test [6]. The mortality at 24 ppm in test [12] came out at 80%.

As for `Fc1cccc2c(OCCc3ccc(Oc4cc(C(F)(F)F)ccn4)cc3)ncnc12` [Compound 12], the pest or weed control at 400 µg/mL in test [1] lay within 90 to 100%; in [3], 90 to 100%; in test [5], 90 to 100%; in [7] it was 90 to 100%; in test [10], 20 to 89%. Further, the mortality at 50 ppm is 100% in test [2], 90% in [8], 0% in test [13] and 80% in [11]. For the same molecule, the mortality at 400 ppm in [2] came to 100%; in test [8], 100%; in test [13], 60%; in test [11], 100%. Besides, the figures for the pest or weed control at 50 ppm in test [4] and in test [6] were 100% and 70%, respectively. The pest or weed control at 400 ppm in test [4] and in [6] was 100% each time. Moreover, the mortality at 24 ppm in test [12] was 0%.

On to `Fc1cccc2c(NCCc3ccc(Oc4ccc(C(F)(F)F)cn4)cc3)ncnc12` [Compound 28, 8-Fluoro-4-(2-(4-(5-(trifluoromethyl)-2-pyridinyloxy)phenyl)ethylamino)quinazoline], for which the pest or weed control at 400 µg/mL fell in the range of 20 to 89% in test [1]; 90 to 100% in [3]; 90 to 100% in test [5]; 90 to 100% in test [7]; 90 to 100% in test [10]. Moreover, the mortality at 50 ppm in test [2] is 100%; in [8], 100%; in [13], 0%; in test [11] it was 100%. The mortality at 400 ppm in [2] came to 100%; in test [8], 100%; in [13] it was 80%; in test [11], 100%. For the same molecule, the pest or weed control at 50 ppm in [4] and in test [6] was 100% in each case. Further, the pest or weed control at 400 ppm in test [4] and in [6] was 100% in each case. Moreover, the mortality at 24 ppm in test [12] is 0%.

As to `Fc1cccc2c(OCCc3ccc(Oc4cc(C(Cl)(Cl)Cl)cc(Cl)n4)cc3)ncnc12` [Compound 34], the pest or weed control at 400 µg/mL lay in the range of 20 to 89% in [1]; 0 to 19% in test [3]; 0 to 19% in test [5]; 20 to 89% in [7]; 0 to 19% in [10]. For the same molecule, the mortality at 50 ppm came out at 0% in [2], 0% in test [8], 0% in [13] and 40% in [11]. Moreover, the mortality at 400 ppm in test [2] was determined as 0%; in test [8] it was 0%; in test [13], 0%; in test [11], 20%. Besides, the pest or weed control at 50 ppm in [4] and in [6] was 0% throughout. The pest or weed control at 400 ppm in test [4] was 100%; in test [6] it was 80%. Besides, in test [12], the mortality at 24 ppm worked out at 0%.

As for `c1cnc(Oc2ccc(CCOc3ncnc4ccccc34)cc2)nc1` [Compound 45], the pest or weed control at 400 µg/mL in [1] fell in the range of 90 to 100%; in test [3], 90 to 100%; in test [5] it was 90 to 100%; in test [7] it was 90 to 100%; in test [10] it was 0 to 19%. Besides, the mortality at 50 ppm in [2] came out at 100%; in test [8] it was 40%; in test [13], 0%; in test [11] it was 60%. Besides, the mortality at 400 ppm was determined as 100% in test [2], 60% in [8], 20% in test [13] and 40% in [11]. Moreover, the pest or weed control at 50 ppm in test [4] and in test [6] was 100% throughout. Also, the pest or weed control at 400 ppm in test [4] and in test [6] was 100% each time. Also, the mortality at 24 ppm in [12] came out at 0%.
